According to ChEMBL document CHEMBL3400147, “New septanoside and 20-hydroxyecdysone septanoside derivative from Atriplex portulacoides roots with preliminary biological activities” (Bioorg Med Chem Lett, 2015):
Converted amounts (≈) assume the structure as drawn. The source made the active and inactive calls. No cut-off for these calls is given here.

What was measured:
[1] = test system: Escherichia coli; assay: Antimicrobial activity against Escherichia coli ATCC 25922 incubated for 24 hrs by microtiter plate dilution method; format: functional
[2] = test system: Staphylococcus aureus; assay: Antimicrobial activity against Staphylococcus aureus ATCC 25923 incubated for 24 hrs by microtiter plate dilution method; format: functional
[3] = test system: Pseudomonas aeruginosa; assay: Antimicrobial activity against Pseudomonas aeruginosa ATCC 27853 incubated for 24 hrs by microtiter plate dilution method; format: functional
[4] = Antioxidant activity assessed as ferric-reducing antioxidant power after 20 mins at 50 degC by UV spectrophotometry; format: physicochemical
[5] = Antioxidant activity assessed as catalase activity by measuring hydrogen peroxide disappearance per mg protein measured for 1 min at 25 degC; format: physicochemical
[6] = Antioxidant activity assessed as DPPH radical scavenging activity incubated for 30 mins by UV absorption spectrometry; format: physicochemical
[7] = biological target: T1, Cholinesterase (Homo sapiens, UniProt P06276); assay: Inhibition of BchE in human plasma at 1 mg/ml incubated for 30 mins using butyrylthiocholine substrate at 37 degC by DTNB dye based spectrophotometry
[8] = Antioxidant activity assessed as ABTS radical scavenging activity incubated for 6 mins; format: physicochemical
[9] = test system: Enterococcus faecalis; assay: Antimicrobial activity against Enterococcus faecalis ATCC 29212 incubated for 24 hrs by microtiter plate dilution method; format: functional
[10] = biological target: T1, Cholinesterase; assay: Inhibition of BchE in human plasma incubated for 30 mins using butyrylthiocholine substrate at 37 degC by DTNB dye based spectrophotometry

T1 sequence (P06276 whole entry): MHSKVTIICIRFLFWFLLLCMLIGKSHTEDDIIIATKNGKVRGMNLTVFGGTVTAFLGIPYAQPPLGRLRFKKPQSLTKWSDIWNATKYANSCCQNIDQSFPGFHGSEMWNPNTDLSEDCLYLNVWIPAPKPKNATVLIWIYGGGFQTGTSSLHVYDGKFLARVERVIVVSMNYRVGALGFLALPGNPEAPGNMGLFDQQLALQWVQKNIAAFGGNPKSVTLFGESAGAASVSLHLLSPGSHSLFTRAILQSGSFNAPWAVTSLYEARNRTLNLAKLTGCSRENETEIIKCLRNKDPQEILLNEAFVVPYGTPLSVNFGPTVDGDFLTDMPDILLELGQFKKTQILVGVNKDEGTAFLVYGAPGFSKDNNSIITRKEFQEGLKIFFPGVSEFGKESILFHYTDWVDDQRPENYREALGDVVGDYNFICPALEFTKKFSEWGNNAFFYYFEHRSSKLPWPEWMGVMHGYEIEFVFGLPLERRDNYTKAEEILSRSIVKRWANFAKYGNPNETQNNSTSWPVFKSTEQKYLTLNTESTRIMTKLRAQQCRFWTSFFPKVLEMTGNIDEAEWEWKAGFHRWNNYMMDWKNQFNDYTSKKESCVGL

Structure (SMILES) | MIC ([1]; ATCC 25922, 24 h) [µg/mL] | MIC ([2]; ATCC 25923, 24 h) [µg/mL] | MIC ([3]; ATCC 27853, 24 h) [µg/mL] | IC50 [4] | Activity [5] | IC50 [6] | inhibition [7] [%] | IC50 [8] | MIC ([9]; ATCC 29212, 24 h) [µg/mL] | IC50 ([10]; read-out: IC50 (converted)) [µM] | MIC [1] | MIC [2] | MIC [3] | MIC [9] | IC50 [10]
CO[C@]1(O[C@@H](CCC(C)(C)O)[C@](C)(O)[C@H]2CC[C@@]3(O)C4=CC(=O)[C@@H]5C[C@@H](O)[C@@H](O)C[C@]5(C)[C@H]4CC[C@]23C)COC[C@@H](O)[C@@H](O)[C@H]1O | 62 (≈ 94.4 µM) | 125 (≈ 190 µM) | 125 (≈ 190 µM) | 288.36 µg/mL (≈ 439 µM) | 159.62 µmol/min | 180.26 µg/mL (≈ 274 µM) | 68.3 | 111.24 µg/mL (≈ 169 µM) | 125 (≈ 190 µM) | 837 | – | – | – | – | –
Cc1c(C)c2c(c(C)c1O)CCC(C)(C(=O)O)O2 (configuration not stated) [TROLOX] | – | – | – | 47.32 µg/mL (≈ 189 µM) | – | 14.56 µg/mL (≈ 58.2 µM) | – | 2.02 µg/mL (≈ 8.07 µM) | – | – | – | – | – | – | –
CN[C@H](CC(C)C)C(=O)N[C@H]1C(=O)N[C@@H](CC(N)=O)C(=O)N[C@H]2C(=O)N[C@H]3C(=O)N[C@H](C(=O)N[C@H](C(=O)O)c4cc(O)cc(O)c4-c4cc3ccc4O)[C@H](O)c3ccc(c(Cl)c3)Oc3cc2cc(c3O[C@@H]2O[C@H](CO)[C@@H](O)[C@H](O)[C@H]2O[C@H]2C[C@](C)(N)[C@H](O)[C@H](C)O2)Oc2ccc(cc2Cl)[C@H]1O [VANCOMYCIN] | 1 (≈ 0.69 µM) | 3 (≈ 2.07 µM) | 1 (≈ 0.69 µM) | – | – | – | – | – | 62 (≈ 42.8 µM) | – | – | – | – | – | –
CCCCOC1(O)COC[C@@H](O)[C@@H](O)[C@H]1O (some centres not stated) | – | – | – | Not Active | Not Active | Not Active | – | Not Active | – | – | inactive | inactive | inactive | inactive | Not Active
O=C1O[C@H]([C@@H](O)CO)C(O)=C1O [ASCORBIC ACID] | – | – | – | – | 757.575 µmol/min | – | – | – | – | – | – | – | – | – | –
CC(C)(O)CC[C@@H](O)[C@](C)(O)[C@H]1CC[C@@]2(O)C3=CC(=O)[C@@H]4C[C@@H](O)[C@@H](O)C[C@]4(C)[C@H]3CC[C@]12C [20-HYDROXYECDYSONE] | 125 (≈ 260 µM) | 125 (≈ 260 µM) | 62 (≈ 129 µM) | 262.45 µg/mL (≈ 546 µM) | 112.35 µmol/min | 155.82 µg/mL (≈ 324 µM) | 71.2 | 98.74 µg/mL (≈ 205 µM) | 125 (≈ 260 µM) | 1050 | – | – | – | – | –
